This is an account of results in patent publication US9340590B2 (priority 2011, dated 2016).

Read-outs that look alike come from different tables or passages of the source. Positions of bridges follow the written chain, without caps; N, C: chain ends. Non-standard residues stand in square brackets, D forms with d. Residues, ends and D or L forms follow the SMILES beside them. Trp(1-Me) = Cn1cc(C[C@H](N)C(=O)O)c2ccccc21; Phe(4-I) = N[C@@H](Cc1ccc(I)cc1)C(=O)O; hPhe = N[C@@H](CCc1ccccc1)C(=O)O; Pra = C#CC[C@H](N)C(=O)O; Dap = NC[C@H](N)C(=O)O

Assay in all cases: cell-based
The target in one assay is hNav1.3 (Homo sapiens, UniProt Q9NY46). Conditions: IonWorks Quattro, hNav1.3, read-out: IWQ Use Nav1.3. A general note: Patch clamp records ionic current or voltage across a cell membrane.
The next assay addresses hNav1.7 (Homo sapiens, UniProt Q15858). Type of assay: cell-based. Conditions: IonWorks Quattro, hNav1.7, read-out: IWQ Use Nav1.7.
For another assay, the target named is hNav1.5 (Homo sapiens, UniProt Q14524). The following applies: IonWorks Quattro, hNav1.5, read-out: IWQ Use Nav1.5.
Chain of hNav1.5 (Q14524 whole entry, looked up): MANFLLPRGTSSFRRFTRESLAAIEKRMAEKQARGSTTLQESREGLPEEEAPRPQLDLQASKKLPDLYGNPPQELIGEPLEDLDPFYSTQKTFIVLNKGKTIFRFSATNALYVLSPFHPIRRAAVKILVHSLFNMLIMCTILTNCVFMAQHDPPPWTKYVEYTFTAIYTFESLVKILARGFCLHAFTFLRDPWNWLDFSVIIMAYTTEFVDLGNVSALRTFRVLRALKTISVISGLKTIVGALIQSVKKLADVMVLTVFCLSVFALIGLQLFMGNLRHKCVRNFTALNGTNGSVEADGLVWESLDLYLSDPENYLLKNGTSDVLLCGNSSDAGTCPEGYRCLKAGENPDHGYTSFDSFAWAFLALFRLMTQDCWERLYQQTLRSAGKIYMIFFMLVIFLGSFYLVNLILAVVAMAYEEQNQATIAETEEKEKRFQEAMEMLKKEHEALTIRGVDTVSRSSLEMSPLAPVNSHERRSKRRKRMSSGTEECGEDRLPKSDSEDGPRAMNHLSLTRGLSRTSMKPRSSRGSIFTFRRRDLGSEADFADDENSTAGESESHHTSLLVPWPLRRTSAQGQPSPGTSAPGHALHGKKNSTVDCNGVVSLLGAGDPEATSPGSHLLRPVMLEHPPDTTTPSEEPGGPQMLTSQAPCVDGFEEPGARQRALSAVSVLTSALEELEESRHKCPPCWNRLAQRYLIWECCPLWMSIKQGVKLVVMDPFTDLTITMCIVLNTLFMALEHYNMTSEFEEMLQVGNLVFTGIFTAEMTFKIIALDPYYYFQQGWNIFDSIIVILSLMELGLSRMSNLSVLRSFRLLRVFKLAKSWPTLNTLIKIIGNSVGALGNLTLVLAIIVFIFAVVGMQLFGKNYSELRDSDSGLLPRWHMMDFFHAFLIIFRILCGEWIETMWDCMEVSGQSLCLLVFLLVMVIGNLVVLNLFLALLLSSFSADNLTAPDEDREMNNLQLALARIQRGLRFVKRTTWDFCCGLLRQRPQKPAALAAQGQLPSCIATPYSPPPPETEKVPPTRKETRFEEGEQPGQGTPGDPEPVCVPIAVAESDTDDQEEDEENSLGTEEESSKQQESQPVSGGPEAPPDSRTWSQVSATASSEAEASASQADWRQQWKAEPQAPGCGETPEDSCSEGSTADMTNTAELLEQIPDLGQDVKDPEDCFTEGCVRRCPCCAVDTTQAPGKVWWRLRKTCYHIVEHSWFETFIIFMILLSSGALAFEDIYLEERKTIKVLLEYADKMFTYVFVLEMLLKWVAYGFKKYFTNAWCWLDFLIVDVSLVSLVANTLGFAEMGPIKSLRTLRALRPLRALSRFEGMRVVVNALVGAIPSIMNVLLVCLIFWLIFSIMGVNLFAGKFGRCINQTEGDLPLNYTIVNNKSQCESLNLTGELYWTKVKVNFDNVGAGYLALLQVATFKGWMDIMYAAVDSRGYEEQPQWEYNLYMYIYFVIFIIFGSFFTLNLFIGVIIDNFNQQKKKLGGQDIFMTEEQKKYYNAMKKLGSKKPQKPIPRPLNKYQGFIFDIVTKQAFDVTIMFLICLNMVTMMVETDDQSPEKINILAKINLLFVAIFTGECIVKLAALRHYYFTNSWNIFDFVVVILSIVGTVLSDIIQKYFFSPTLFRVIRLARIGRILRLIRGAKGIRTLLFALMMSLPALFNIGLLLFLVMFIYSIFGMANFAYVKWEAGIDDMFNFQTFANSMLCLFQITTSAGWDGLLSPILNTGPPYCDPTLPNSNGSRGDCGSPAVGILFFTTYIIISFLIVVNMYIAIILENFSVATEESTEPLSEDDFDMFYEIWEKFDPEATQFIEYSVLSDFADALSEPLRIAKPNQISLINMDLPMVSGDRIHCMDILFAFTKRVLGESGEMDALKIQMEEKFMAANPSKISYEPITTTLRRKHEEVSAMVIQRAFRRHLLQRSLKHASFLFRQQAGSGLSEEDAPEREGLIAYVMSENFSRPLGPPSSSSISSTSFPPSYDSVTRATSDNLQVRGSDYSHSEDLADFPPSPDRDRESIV

Chain of hNav1.7 (Q15858 whole entry, looked up): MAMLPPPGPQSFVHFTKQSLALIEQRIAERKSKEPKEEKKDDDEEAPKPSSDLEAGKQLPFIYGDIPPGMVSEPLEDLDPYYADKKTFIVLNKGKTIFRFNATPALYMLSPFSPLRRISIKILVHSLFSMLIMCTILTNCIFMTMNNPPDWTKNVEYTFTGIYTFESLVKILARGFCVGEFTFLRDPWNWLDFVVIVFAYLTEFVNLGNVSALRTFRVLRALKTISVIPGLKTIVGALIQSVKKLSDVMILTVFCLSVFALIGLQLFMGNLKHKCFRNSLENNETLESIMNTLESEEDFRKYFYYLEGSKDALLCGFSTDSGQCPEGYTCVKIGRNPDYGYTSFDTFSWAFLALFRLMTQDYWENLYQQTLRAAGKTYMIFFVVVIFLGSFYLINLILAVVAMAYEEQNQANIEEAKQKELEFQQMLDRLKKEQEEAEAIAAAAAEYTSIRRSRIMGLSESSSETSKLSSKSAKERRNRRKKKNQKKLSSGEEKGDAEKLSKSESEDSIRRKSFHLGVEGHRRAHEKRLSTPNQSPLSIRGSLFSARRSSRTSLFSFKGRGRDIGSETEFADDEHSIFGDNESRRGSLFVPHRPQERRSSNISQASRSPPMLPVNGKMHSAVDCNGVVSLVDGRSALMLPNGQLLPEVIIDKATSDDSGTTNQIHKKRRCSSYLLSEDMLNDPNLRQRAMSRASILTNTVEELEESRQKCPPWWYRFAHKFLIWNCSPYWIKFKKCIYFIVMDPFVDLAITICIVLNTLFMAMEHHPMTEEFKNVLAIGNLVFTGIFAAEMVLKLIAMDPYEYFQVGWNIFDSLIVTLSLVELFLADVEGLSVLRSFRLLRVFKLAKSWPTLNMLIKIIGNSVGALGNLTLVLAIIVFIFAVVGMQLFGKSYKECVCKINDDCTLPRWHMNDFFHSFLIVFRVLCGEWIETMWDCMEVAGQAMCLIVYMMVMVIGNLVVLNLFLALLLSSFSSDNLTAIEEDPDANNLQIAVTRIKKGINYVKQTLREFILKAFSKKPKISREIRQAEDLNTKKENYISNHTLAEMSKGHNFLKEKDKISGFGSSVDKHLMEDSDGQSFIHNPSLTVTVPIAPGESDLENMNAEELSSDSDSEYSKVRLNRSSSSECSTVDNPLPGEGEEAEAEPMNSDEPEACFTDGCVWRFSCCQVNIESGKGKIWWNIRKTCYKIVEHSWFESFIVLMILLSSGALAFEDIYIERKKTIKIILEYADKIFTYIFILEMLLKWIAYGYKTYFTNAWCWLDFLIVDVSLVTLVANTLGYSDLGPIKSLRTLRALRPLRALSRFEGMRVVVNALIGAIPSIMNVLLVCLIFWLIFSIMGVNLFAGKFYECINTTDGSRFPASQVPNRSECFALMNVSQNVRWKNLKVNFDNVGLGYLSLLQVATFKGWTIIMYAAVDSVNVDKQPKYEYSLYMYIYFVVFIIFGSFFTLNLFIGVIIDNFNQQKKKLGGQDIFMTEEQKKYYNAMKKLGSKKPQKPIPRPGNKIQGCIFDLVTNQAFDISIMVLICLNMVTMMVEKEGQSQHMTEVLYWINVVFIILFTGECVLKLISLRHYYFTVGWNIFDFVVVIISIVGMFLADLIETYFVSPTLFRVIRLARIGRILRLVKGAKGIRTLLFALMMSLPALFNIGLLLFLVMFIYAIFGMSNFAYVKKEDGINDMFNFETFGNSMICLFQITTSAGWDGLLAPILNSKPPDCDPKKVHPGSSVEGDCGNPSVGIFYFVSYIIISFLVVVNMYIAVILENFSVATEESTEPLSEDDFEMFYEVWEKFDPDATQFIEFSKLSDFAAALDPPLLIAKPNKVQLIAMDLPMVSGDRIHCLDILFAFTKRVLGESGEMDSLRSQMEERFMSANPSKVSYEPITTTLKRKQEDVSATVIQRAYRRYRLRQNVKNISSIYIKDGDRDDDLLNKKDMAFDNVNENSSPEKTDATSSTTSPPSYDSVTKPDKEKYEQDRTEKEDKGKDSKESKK

Regarding `CC[C@H](C)[C@@H]1NC(=O)[C@@H]2CSSC[C@@H]3NC(=O)[C@H](C(C)C)NC(=O)[C@H](CC(C)C)NC(=O)[C@H](CC(N)=O)NC(=O)[C@H](CO)NC(=O)[C@H](CCCNC(=N)N)NC(=O)[C@H](CSSC[C@H](NC(=O)[C@@H](N)CC(=O)O)C(=O)N[C@@H](CC(C)C)C(=O)NCC(=O)N[C@@H](Cc4ccccc4)C(=O)N[C@@H](CCSC)C(=O)N[C@@H](CCCNC(=N)N)C(=O)N[C@@H](CCCCN)C(=O)N2)NC(=O)[C@H](CSSC[C@@H](C(=O)N[C@@H](CCCCN)C(=O)N[C@@H](Cc2cn(C)c4ccccc24)C(=O)N[C@H](C(=O)N[C@@H](Cc2ccccc2)C(N)=O)C(C)C)NC(=O)[C@H](Cc2c[nH]c4ccccc24)NC(=O)[C@H](CCCCN)NC(=O)[C@H](Cc2c[nH]cn2)NC(=O)[C@H]([C@@H](C)O)NC(=O)[C@H](CCCNC(=N)N)NC(=O)[C@H](CO)NC3=O)NC(=O)[C@H](CCCCN)NC(=O)[C@H](CC(=O)O)NC(=O)[C@H](CC(N)=O)NC(=O)[C@H](CC(=O)O)NC(=O)[C@@H]2CCCN2C1=O` [compound 695] (H-DCLGFMRKCIPDNDKCCRSNLVCSRTHKWCK[Trp(1-Me)]VF-NH2; disulfide 2-17, 9-23, 16-30), the IC50 is 30 nM at hNav1.3 (use-dependent protocol), 30 nM at hNav1.7 (use-dependent protocol) and above 5000 nM on hNav1.5 (use-dependent protocol).
Consider `CC[C@H](C)[C@@H]1NC(=O)[C@@H]2CSSC[C@@H]3NC(=O)[C@H](C(C)C)NC(=O)[C@H](CC(C)C)NC(=O)[C@H](CC(N)=O)NC(=O)[C@@H]4CCCN4C(=O)[C@H](CCCNC(=N)N)NC(=O)[C@H](CSSC[C@H](NC(=O)[C@@H](N)CC(=O)O)C(=O)N[C@@H](CC(C)C)C(=O)NCC(=O)N[C@@H](CCc4ccccc4)C(=O)N[C@@H](Cc4ccccc4)C(=O)N[C@@H](CCCNC(=N)N)C(=O)N[C@@H](CCCCN)C(=O)N2)NC(=O)[C@H](CSSC[C@@H](C(=O)N[C@@H](CCCCN)C(=O)N[C@@H](Cc2ccc(O)cc2)C(=O)N[C@H](C(=O)N[C@@H](Cc2ccccc2)C(N)=O)C(C)C)NC(=O)[C@H](Cc2c[nH]c4ccccc24)NC(=O)[C@H](CCCCN)NC(=O)[C@H](Cc2c[nH]cn2)NC(=O)[C@H]([C@@H](C)O)NC(=O)[C@H](CCCNC(=N)N)NC(=O)[C@H](CO)NC3=O)NC(=O)[C@H](CCCCN)NC(=O)[C@H](CC(=O)O)NC(=O)[C@H](CC(N)=O)NC(=O)[C@H](CC(=O)O)NC(=O)[C@@H]2CCCN2C1=O` [compound 631] (H-DCLG[hPhe]FRKCIPDNDKCCRPNLVCSRTHKWCKYVF-NH2; disulfide 2-17, 9-23, 16-30), for which the IC50 on hNav1.3 (use-dependent protocol) came out at 5 nM; on hNav1.7 (use-dependent protocol), 19 nM; on hNav1.5 (use-dependent protocol), 4900 nM.
In the case of `C#CC[C@@H]1NC(=O)[C@H](CC(=O)O)NC(=O)[C@@H]2CCCN2C(=O)[C@H](CCC(=O)O)NC(=O)[C@@H]2CSSC[C@@H]3NC(=O)[C@H](C(C)C)NC(=O)[C@H](CC(C)C)NC(=O)[C@H](CC(N)=O)NC(=O)[C@@H]4CCCN4C(=O)[C@H](CCCNC(=N)N)NC(=O)[C@H](CSSC[C@H](NC(=O)[C@@H](N)CC(=O)O)C(=O)N[C@@H](CC(C)C)C(=O)NCC(=O)N[C@@H](C)C(=O)N[C@@H](Cc4ccccc4)C(=O)N[C@@H](CCCNC(=N)N)C(=O)N[C@@H](CCCCN)C(=O)N2)NC(=O)[C@H](CSSC[C@@H](C(=O)N[C@@H](CCCCN)C(=O)N[C@@H](Cc2ccc(O)cc2)C(=O)N[C@H](C(=O)N[C@@H](Cc2ccccc2)C(N)=O)C(C)C)NC(=O)[C@H](Cc2c[nH]c4ccccc24)NC(=O)[C@H](CCCNC(=N)N)NC(=O)[C@H](Cc2c[nH]cn2)NC(=O)[C@H](CC(C)C)NC(=O)[C@H](CCCNC(=N)N)NC(=O)[C@H](CO)NC3=O)NC(=O)[C@H](CCCCN)NC(=O)[C@H](CC(=O)O)NC1=O` [compound 798] (H-DCLGAFRKCEPD[Pra]DKCCRPNLVCSRLHRWCKYVF-NH2; disulfide 2-17, 9-23, 16-30), the IC50 at hNav1.3 (use-dependent block) amounted to 560 nM; on hNav1.7 (use-dependent block), 540 nM; on hNav1.5 (use-dependent block), 32200 nM.
As for `CC[C@H](C)[C@@H]1NC(=O)[C@@H]2CSSC[C@@H]3NC(=O)[C@H](C(C)C)NC(=O)[C@H](CC(C)C)NC(=O)[C@H](CC(N)=O)NC(=O)[C@@H]4CCCN4C(=O)[C@H](CCCNC(=N)N)NC(=O)[C@H](CSSC[C@H](NC(=O)[C@@H](N)CC(=O)O)C(=O)N[C@@H](CC(C)C)C(=O)NCC(=O)N[C@@H](Cc4ccc(I)cc4)C(=O)N[C@@H](Cc4ccccc4)C(=O)N[C@@H](CCCNC(=N)N)C(=O)N[C@@H](CCCCN)C(=O)N2)NC(=O)[C@H](CSSC[C@@H](C(=O)N[C@@H](CCCCN)C(=O)N[C@@H](Cc2ccc(O)cc2)C(=O)N[C@H](C(=O)N[C@@H](Cc2ccccc2)C(N)=O)C(C)C)NC(=O)[C@H](Cc2c[nH]c4ccccc24)NC(=O)[C@H](CCCCN)NC(=O)[C@H](Cc2c[nH]cn2)NC(=O)[C@H]([C@@H](C)O)NC(=O)[C@H](CCCNC(=N)N)NC(=O)[C@H](CO)NC3=O)NC(=O)[C@H](CCCCN)NC(=O)[C@H](CC(=O)O)NC(=O)[C@H](CC(N)=O)NC(=O)[C@H](CC(=O)O)NC(=O)[C@@H]2CCCN2C1=O` [compound 622] (H-DCLG[Phe(4-I)]FRKCIPDNDKCCRPNLVCSRTHKWCKYVF-NH2; disulfide 2-17, 9-23, 16-30), the figures for the IC50 at hNav1.3 (use-dependent protocol), at hNav1.7 (use-dependent protocol) and on hNav1.5 (use-dependent protocol) were 21000 nM, 12300 nM and 12900 nM, respectively.
For `CC[C@H](C)[C@@H]1NC(=O)[C@@H]2CSSC[C@@H]3NC(=O)[C@H](C(C)C)NC(=O)[C@H](CC(C)C)NC(=O)[C@H](CC(N)=O)NC(=O)[C@@H]4CCCN4C(=O)[C@H](CCCNC(=N)N)NC(=O)[C@H](CSSC[C@H](NC(=O)[C@@H](N)CC(=O)O)C(=O)N[C@@H](CC(C)C)C(=O)NCC(=O)N[C@@H](C)C(=O)N[C@@H](CCSC)C(=O)N[C@@H](CCCNC(=N)N)C(=O)N[C@@H](CCCCN)C(=O)N2)NC(=O)[C@H](CSSC[C@@H](C(=O)N[C@@H](CCCCN)C(=O)N[C@@H](Cc2ccc(O)cc2)C(=O)N[C@H](C(=O)N[C@@H](Cc2ccccc2)C(N)=O)C(C)C)NC(=O)[C@H](Cc2c[nH]c4ccccc24)NC(=O)[C@H](CN)NC(=O)[C@H](Cc2c[nH]cn2)NC(=O)[C@H]([C@@H](C)O)NC(=O)[C@H](CCCNC(=N)N)NC(=O)[C@H](CO)NC3=O)NC(=O)[C@H](CCCCN)NC(=O)[C@H](CC(=O)O)NC(=O)[C@H](CC(N)=O)NC(=O)[C@H](CC(=O)O)NC(=O)[C@@H]2CCCN2C1=O` [compound 747] (H-DCLGAMRKCIPDNDKCCRPNLVCSRTH[Dap]WCKYVF-NH2; disulfide 2-17, 9-23, 16-30), the figures for the IC50 on hNav1.3 (use-dependent block), at hNav1.7 (use-dependent block) and on hNav1.5 (use-dependent block) were 780 nM, 370 nM and 38300 nM, respectively.
